Experimental data published in PMC7062083, “Metabolite identification, tissue distribution, excretion and preclinical pharmacokinetic studies of ET-26-HCl, a new analogue of etomidate” (Royal Society Open Science, 2020).
“And” between values parts separate entries of the source, which are not always exact repeats. Equal entries are not always repeated. Where two headings read alike, the source gives them in different places.

Tests used:
[1] = Metabolic stability in mouse liver microsomes; type: in vitro ADME
Description: (§1) Samples were analysed by LC–MS/MS as mentioned above.2.1 CLint, in vitro=0.693/t1/2/Cprotein, 2.2 CLint, in vivo=CLint, in vitro×Houston×LW/1000 2.3 andCLhep in vivo=HBF × fu ×CLint, in vivo/HBF + fu ×CLint, in vivo. Where Cprotein is microsomal protein concentration (mg ml^−1); Houston is Houston factor (45 mg of microsomal protein g^−1 liver); LW is liver weight (g) (per species); HBF is hepatic blood flow (ml min^−1) (per species); fu (two places) and later is unbound fraction (fu = 1 − %protein binding).

[2] = Metabolic stability in dog liver microsomes; type: in vitro ADME; conditions: for half-life: pH 7.4
Description: as §1

[3] = Plasma protein binding, equilibrium dialysis, rat plasma; type: in vitro ADME
Description: (§2) The PPB of ET-26-HCl in mouse, rat, beagle dog, monkey and human plasma was determined according to the equilibrium dialysis method. In brief, 1 ml of control plasma samples in dialysis bag was incubated in 10 ml of PBS containing ET-26-HCl at a final concentration of 2.21 × 10^2, 1.77 × 10^3 and 3.54 × 10^3 […] at 4°C with an equilibrium time of 9 h to reach the mass balance binding condition. A 100 µl aliquots of the PBS buffer and the plasma in the dialysis bag were transferred to 2 ml EP tubes and diluted to 995 µl with PBS and analysed on the LC–MS/MS system. The PPB (fppb) was calculated as follows: fppb=Din−Dout/Din×100% , where Din is the plasma drug concentration in the dialysis bag and Dout is the dialysate drug concentration.

[4] = Plasma protein binding, equilibrium dialysis, human plasma; type: in vitro ADME; conditions: human, plasma
Description: as §2

[5] = system: human plasma; experiment: as above; type: in vitro ADME; conditions: overall over the three concentrations
Description: as §2

[6] = Stability in beagle plasma (LC-MS/MS); type: in vitro ADME
Description: Concentrations of ET-26-HCl and ET-26-acid in biological samples were determined by liquid chromatography–tandem mass spectrometry (LC–MS/MS) after deproteinization with methanol. The bioanalytical method for simultaneous quantification of ET-26-HCl and ET-26-acid in the different matrix was fully validated according to FDA guidelines (electronic supplementary material, figure S1 and tables S1 and S2) in our previous study. Briefly, a 100 µl sample (plasma, tissue homogenate, bile, urine and faeces suspension) were spiked with 20 µl of IS solution and vortexed for 30 s. The mixture was then processed for protein precipitation with 300 µl methanol, followed by centrifugation at 12 000 r.p.m. for 5 min. Supernatant was collected and analysed by LC–MS/MS system.

[7] = Dose tolerance pre-experiment in rats; type: in vivo
Description: For the PK study of beagle dogs and excretion test of rats, how do you identify those doses? As you described, beagle dogs in the 6 groups received three doses of ET-26- HCl: 1.045 mg/kg, 2.090 mg/kg, and 4.180 mg/kg as low (L), medium (M), and high (H) dose; however, the rats received a single 4.2 mg/kg dose of ET-26-HCl. Please provide the citations or calculation of […]
Thank the reviewer for this comment. According to the “Guidelines for non-clinical pharmacokinetic studies of drugs” of China Food and Drug Administration, the in vivo pharmacokinetic studies of animals should be performed with at least three dose groups, which the high dose is preferably close to the maximum tolerated dose, and the small dose is selected based on the limits of the effective dose of the animals. […]
kg and 1.045 mg/ kg for rat and dog, respectively, according to the results of the drug effect in the early stage of the cooperation laboratory. In our pre-experiment, individual rats appeared myoclonus after the 4-fold ED50 dose administration. When given the higher dose, some rats […]
Thus, the ED50, 2-fold ED50, and 4-fold ED50 dose were used as the low, middle and high dose group for the pharmacokinetic study in our previous research. Similar dosage design was used in our present work. The middle dose (4.2 mg/kg dose of ET-26-HCl) was utilized for the excretion test in rats. […]

[8] = design: method as in earlier work; conditions: rat; ref results of the drug effect in the early stage of the cooperation laboratory; cited from earlier work
[9] = rats, i.v., cited from earlier work
[10] = dog liver microsomes, Cprotein 0.33 mg ml^−1
[11] = measured concentration 654 ng ml^−1
[12] = measured concentration 2.62 × 10^3 ng ml^−1, read-out: protein binding (converted)
[13] = measured concentration 5.23 × 10^3 ng ml^−1, read-out: protein binding (converted)
[14] = overall over the three concentrations, read-out: plasma protein binding rate (converted)

With `COCCOC(=O)c1cncn1[C@H](C)c1ccccc1.Cl` [ET-26-HCl, (R)-2-methoxyethyl1-(1-phenylethyl)-1H-imidazole-5-carboxylate hydrochloride] the “CLint, in vitro” value ([1]; mouse liver microsomes) was 629 ml min g^−1 protein, the “metabolic stability (in words)” value ([1]; mouse liver microsomes) was “not metabolically stable” and the “CLint, in vitro” value ([1]; mouse liver microsomes, Cprotein 0.33 mg ml^−1) was 629 ± 25.7 ml min^−1 g^−1 protein. For the same molecule, the “extrapolated CLhep in vivo” value ([1]; mouse, from liver microsomes) was 2.8 ± 0.0 mL/min, the “extrapolated CLint, in vivo” value ([1]; mouse, from liver microsomes) was 42.4 ± 1.7 mL/min and the half-life ([1]; mouse, liver microsomes, pH 7.4, mouse liver microsomes, Cprotein 0.33 mg ml^−1) was < 5 min. The half-life ([2]; beagle, dog liver microsomes, Cprotein 0.33 mg ml^−1) was < 5 min, the “CLint, in vitro” value ([2]; dog liver microsomes) was 466 ml min g^−1 protein and the “metabolic stability (in words)” value ([2]; dog liver microsomes) was “not metabolically stable”. The “CLint, in vitro” value [2, 10] was 466 ± 12.3 ml min^−1 g^−1 protein, the “extrapolated hepatic clearance normalized to body weight” value ([2]; dog, assumed body weight 10 kg (printed order)) was 4.58 L·h/kg and the “extrapolated CLhep in vivo” value ([2]; dog, from liver microsomes) was 296 mL/min and 296 ± 0.35 mL/min. For the same molecule, the “extrapolated CLint, in vivo” value ([2]; dog, from liver microsomes) was 6712 ± 117 mL/min, the half-life [2, 10] was 4.5 ± 0.1 min and the fraction unbound at 9 h, 654 ng ml^−1 [3, 11] was 0.181. The fraction unbound at 9 h [3, 12] was 0.15, the fraction unbound at 9 h [3, 13] was 0.178 and the fraction unbound at 9 h [3, 14] was 0.17. It also gave a fraction unbound at 9 h, 654 ng ml^−1 [4, 11] of 0.372, a fraction unbound at 9 h [4, 12] of 0.318 and a fraction unbound at 9 h [4, 13] of 0.261. The fraction unbound at 9 h [4, 14] was 0.317, the “plasma protein binding rate” value [5] was 68% and the “Measured concentration (Mean ± SD)” value ([6]; 4◦C for 3 h, nominal 44.92 ng/mL) was 48.79 ± 3.275 ng/mL. For the same molecule, the “Measured concentration (Mean ± SD)” value ([6]; 4◦C for 3 h, nominal 3743 ng/mL) was 3977 ± 294.1 ng/mL, the “Measured concentration (Mean ± SD)” value ([6]; Freeze and Thaw Cycle (3), nominal 44.92 ng/mL) was 47.75 ± 3.427 ng/mL and the “Measured concentration (Mean ± SD)” value ([6]; Freeze and Thaw Cycle (3), nominal 3743 ng/mL) was 3722 ± 240.3 ng/mL. The “Measured concentration (Mean ± SD)” value ([6]; Room temperature 3 h, nominal 44.92 ng/mL) was 47.91 ± 4.952 ng/mL, the “Measured concentration (Mean ± SD)” value ([6]; Room temperature 3 h, nominal 3743 ng/mL) was 3599 ± 136.1 ng/mL and the “Measured concentration (Mean ± SD)” value ([6]; –80 ◦C for 30 days, nominal 44.92 ng/mL) was 44.67 ± 4.795 ng/mL. The “Measured concentration (Mean ± SD)” value ([6]; –80 ◦C for 30 days, nominal 3743 ng/mL) was 3989 ± 229.1 ng/mL, the adverse signs observed ([7]; individual rats, after the 4-fold ED50 dose) was “myoclonus” and the adverse signs observed ([7]; some rats, dose higher than 4-fold ED50) was “convulsions and even died”. The ED50 [8] was 2.1 mg/kg, the AUC0-t ([9]; 2.1 mg/kg) was 28.47 ± 3.41 mg·min/L and the CL ([9]; 2.1 mg/kg) was 58 ± 11 mL/min/kg. The Cmax ([9]; 2.1 mg/kg) was 1820 ± 200 ng/mL, the Vd ([9]; 2.1 mg/kg) was 5.37 ± 0.72 L/kg and the t1/2 ([9]; 2.1 mg/kg) was 65.4 ± 12.6 min. For the same molecule, the λ ([9]; 2.1 mg/kg) was 0.66 ± 0.24 h⁻¹, the AUC0-t ([9]; 4.2 mg/kg) was 41.70 ± 3.61 mg·min/L and the CL ([9]; 4.2 mg/kg) was 92 ± 8 mL/min/kg. The Cmax ([9]; 4.2 mg/kg) was 3310 ± 210 ng/mL, the Vd ([9]; 4.2 mg/kg) was 5.24 ± 1.33 L/kg and the t1/2 ([9]; 4.2 mg/kg) was 39.6 ± 10.2 min. For the same molecule, the λ ([9]; 4.2 mg/kg) was 1.20 ± 0.36 h⁻¹, the AUC0-t ([9]; 8.4 mg/kg) was 110.92 ± 9.04 mg·min/L and the CL ([9]; 8.4 mg/kg) was 64 ± 5 mL/min/kg. For the same molecule, the Cmax ([9]; 8.4 mg/kg) was 7010 ± 360 ng/mL, the Vd ([9]; 8.4 mg/kg) was 4.67 ± 0.99 L/kg and the t1/2 ([9]; 8.4 mg/kg) was 51 ± 8.4 min. For the same molecule, the λ ([9]; 8.4 mg/kg) was 0.78 ± 0.12 h⁻¹ and the “time until cleared after intravenous administration” value [9] was ≤ 4 h.
